Measurements as given in US20150352040A1 (priority 2010, published 2015).
Like-named read-outs stand apart in the source and are kept apart here.

Columns and labels:
[1] = in comparison to a 15 mg dose of hydrocodone
Excerpt: In certain preferred embodiments, the opioid agonist is hydrocodone.

[2] = milligram-for-milligram basis; cited from earlier work
[3] = test system: human patients
[4] = TRNA therapy with topical apomorphine, onset of clinical effect; type: in vivo, human
[5] = test system: patients; assay: Compounded topical morphine sulfate and tramadol, inventor's clinical experience (nuchal and peripheral application); settings: patients tapering off oral narcotics, nuchal delivery as only pain therapy
Procedure: The dose for MS has been 2.5-5.0 mg and for tramadol, 40-80 mg, divided over two to three locations, as described herein.
With activation of opioid receptors potentially providing improved pain relief, MS and tramadol were compounded for topical administration.

[6] = test system: human patients; assay: Efficacy of topical opioid analgesic formulations in human patients (Example 6); type: in vivo
Excerpt: The efficacy of topical opioid analgesic formulations was studied in human patients.

[7] = compounded morphine in cold cream applied locally to skin at areas of pain; cited from earlier work
[8] = cited from earlier work
[9] = test system: patient; settings: 1 mg twice daily
[10] = test system: patients; settings: cited from earlier work
[11] = case 4, acute lumbar sprain, 1.0 mg application
[12] = Patient C, 40 mg topical divided between knee and lower back
[13] = Patient E, 40 mg topical to neck and back in divided dose
[14] = Patient F, 40 mg topical to nuchal region and lower back in divided doses
[15] = Patient H, 40 mg topical in 1 ml Lipoderm

For `COc1ccc2c3c1O[C@H]1[C@@H](O)C=C[C@H]4[C@@H](C2)N(C)CC[C@@]341` [Codeine], the “Calculated Dose (mg), equianalgesic” value [1] was 90.0 mg.
In the case of `CC(=O)Oc1ccc2c3c1O[C@H]1[C@@H](OC(C)=O)C=C[C@H]4[C@@H](C2)N(C)CC[C@@]341` [Heroin, diacetylmorphine], the “potency relative to morphine” value [2] is listed as 1.5-2 times.
In the case of `COc1ccc2c3c1O[C@H]1C(=O)CC[C@H]4[C@@H](C2)N(C)CC[C@]314` [Hydrocodone], the “Calculated Dose (mg), equianalgesic” value [1] is reported as 15.0 mg.
In the case of `CN1CC[C@]23CCCC[C@H]2[C@H]1Cc1ccc(O)cc13` [Levorphanol], the “Calculated Dose (mg), equianalgesic” value [1] is reported as 1.8 mg.
In the case of `CCC(=O)C(CC(C)N(C)C)(c1ccccc1)c1ccccc1` (stereo not drawn) [Methadone], the “Calculated Dose (mg), equianalgesic” value [1] is reported as 9.0 mg.
In the case of `COc1ccc2c3c1O[C@H]1C(=O)CC[C@@]4(O)[C@@H](C2)N(C)CC[C@]314` [Oxycodone], the “Calculated Dose (mg), equianalgesic” value [1] is reported as 13.5 mg.
With `CN1CCc2cccc3c2[C@H]1Cc1ccc(O)c(O)c1-3` [apomorphine] the “time to pain relief, all patients” value ([3]; Example 3, cream of Example 1 over nerve entrapment areas or affected muscle) was 5 to 10 min, the “outcome, carpal tunnel syndrome” value ([3]; case 1, pregnant person, 0.5 mg at the wrist) was “without recurrent symptoms” and the pain relief ([3]; case 2, additional 0.5 mg after 24 hours) was “complete pain relief”. The pain relief ([3]; case 2, tarsal tunnel syndrome/plantar fasciitis, runner, 0.5 mg application) was 90%, the “outcome, pain” value ([3]; case 3, hamstring injury, 0.5 mg) was “complete resolution of pain without recurrence” and the “time to resolution of pain” value ([3]; case 3, hamstring injury, 0.5 mg to muscle and insertion site) was 5 to 10 min. The “pain and spasm relief” value ([3]; case 4 (person one), acute lumbar sprain, 1.0 mg application) was 80-90%, the duration of relief [3, 11] was “lasted overnight” and the “time to pain and spasm relief” value [3, 11] was 10 to 15 min. For the same molecule, the “outcome, acute lumbar sprain from lifting” value ([3]; case 5, 0.5 mg application and heating pad) was “without recurrent symptoms”, the “outcome, foot pain from stress fractures and tarsal tunnel” value ([3]; case 6, marathon runner, 0.5 mg to base of toe and 0.5 to tarsal tunnel) was “experienced pain relief” and the “tolerability of increased single dose” value ([3]; single topical dose increased to 2 mg, peripheral application) was “without deleterious effects”. The “onset of clinical effect” value [4] was 10 to 15 min.
With `CN1CC[C@]23c4c5ccc(O)c4O[C@H]2[C@@H](O)C=C[C@H]3[C@H]1C5.O=S(=O)(O)O` [morphine sulfate] the narcotic withdrawal symptoms [5] was “no significant narcotic withdrawal symptoms”, the “further reduction in pain from baseline” value ([6]; Patient G, 3 mg topical in Pass-gel to the nuchal region, on oral oxycodone) was 20-30% and the “reduction in baseline back and hip pain” value ([6]; Patient I, topical 2.5 mg in 0.5 ml Pass-gel, despite regular narcotics) was 15-20%. The “time to reduction in pain” value ([6]; Patient K, topical 2.5 mg to the nuchal region) was 10 to 15 min, the “headache and neck pain after treatment” value ([6]; Patient K, topical 2.5 mg to the nuchal region, from "severe") was 0-1 of 10 and the “time to reduction in pain” value ([6]; Patient L, topical 2.5 mg to the nuchal region) was 8 to 10 min. For the same molecule, the pain after treatment ([6]; Patient L, topical 2.5 mg to the nuchal region, from about 8 of 10) was “about 4 of 10”.
For `CN1CC[C@]23c4c5ccc(O)c4O[C@H]2[C@@H](O)C=C[C@H]3[C@H]1C5` [morphine], the additional pain relief ([6]; Patient D, topical 2.5 mg in 0.5 ml Pass-gel, despite regular hydromorphone) is listed as 20-30% and the “morphine levels in blood or urine” value [7] is listed as “not detected”.
For `Clc1ccc2nsnc2c1NC1=NCCN1` [tizanidine], the “absorption after oral administration” value [8] is given as “completely absorbed”, the “state of spastic upper extremity” value ([9]; after a few months of continued therapy) is given as “essentially back to normal” and the “state of spastic upper extremity” value ([9]; within several weeks) is given as “visible improvement”.
In the case of `COc1cccc(C2(O)CCCCC2CN(C)C)c1` (stereo not drawn) [tramadol], the “onset of withdrawal after the last dose” value ([10]; in most cases) is given as 12 to 20 h, the “duration of acute withdrawal symptoms” value ([10]; versus three or four days for other codeine analogues) is given as “seven days or more” and the narcotic withdrawal symptoms [5] is given as “no significant narcotic withdrawal symptoms”. The pain relief ([6]; Patient A, topical in Lipoderm, 40 mg tramadol hydrochloride dose twice daily, nuchal region and back) was “Pain relief is achieved”, the “pain in the neck after treatment” value ([6]; Patient B, 15 minutes after 20 mg topical to nuchal region and lower back, baseline about 7-8/10) was “about 0 /10” and the “pain in the back and legs after treatment” value ([6]; Patient B, 15 minutes after 20 mg topical to nuchal region and lower back, baseline about 7/10) was “about 2 /10”. For the same molecule, the “benefit of oral tablets in the past” value ([6]; Patient B, tramadol (Ultram) tablets) was “without significant benefit”, the eventual pain relief [6, 12] was 80-90% and the “time to initial reduction in pain” value [6, 12] was ≤ 15 min. The “initial reduction in pain” value ([6]; Patient C, right knee pain, 40 mg topical divided between knee (popliteal fossa) and lower back) was ~50%, the outcome ([6]; Patient D, 40 mg topical at the nuchal region) was “with benefit” and the reduction in pain [6, 13] was 70-80%. The “time to reduction in pain” value [6, 13] was 10 to 15 min, the pain relief [6, 14] was ≥ 70% and the “time to pain relief” value [6, 14] was ≤ 15 min. The “duration of pain relief” value [6, 15] was ~48 h, the “time to pain relief” value [6, 15] was ≤ 15 min and the pain relief ([6]; Patient H, 40 mg topical in 1 ml Lipoderm to neck and back in divided doses) was “greater than 80%”. The “outcome, pain (trigeminal neuralgia and cervical sprain)” value ([6]; Patient J, topical 40 mg in 1 ml Lipoderm to the nuchal region) was “dramatic improvement in pain”.
For Meperidine, the “Calculated Dose (mg), equianalgesic” value [1] was 135.0 mg.
